IC50 data for 64 compounds are collected here from patent publication US7671061B2, “Methods and compositions for treating pain” (Hydra Biosciences, Inc., priority 2005, dated 2010).

Like-named read-outs stand apart in the source and are kept apart here.

The test deals with T1, hTRPA1 (Homo sapiens, UniProt O75762, K186N).
T1 construct: expressed in transfected cells; host or cells: HEK293/TREx (Invitrogen), induced with tetracycline
The test can be described thus: High throughput Ca2+ fluorescence (Fluo4) assay, AITC stimulation. The class given is cell-based. An excerpt: The assay depended on detection of the rise in intracellular Ca^2+ concentration ([Ca^2+]i) following channel activation in cells inducibly expressing the TRPA1 channel. Ca^2+ rise was quantified with the use of fluorescent Ca^2+ indicators that were loaded into cells and thereafter indicated the [Ca^2+]i. Ca^2+ influx followed activation of the TRPA1 channel. Compounds inhibiting the [Ca^2+]i rise were considered hits for further investigation.
These cells were maintained in the growth medium recommended by the manufacturer supplemented with 100 μg/ml hygromycin to promote retention of the TRPA1 construct. After growing to near confluency, cells were plated at a density of ˜25,000 cells/well in 384 well CellBind plates (Corning) in the presence of 1 μg/ml tetracycline, and allowed to grow for 20-30 hrs. A nearly confluent monolayer resulted. Cells were then loaded with Ca^2+ dye: Fura-2/AM or Fluo4/AM was added to the wells to a final concentration of 2 μM or 1 μM, respectively, and incubated for 80 min or 60 min, respectively, at room temperature. […] Frames were acquired at a rate of 0.2 Hz. During the assay, the plates were continuously […], with pipette mixing of wells following addition of each reagent. For the screening assay, 13 μl of a diluted stock (at 50 μM) was added to each well for 2 minutes following the collection of a short (4 frame) baseline. […] Data was collected for ˜3 minutes following addition of AITC, where the fluorescent intensity (for Fluo4) and the F340/F380 ratio (for Fura-2) were proportional to the [Ca^2+]i. Negative controls consisted of HEK293/TREx TRPA1 cells exposed to AITC, but no compound. […] These controls defined a screening window, and “hits” were defined as those compounds inhibiting the fluorescence response by at least 40%. IC50 values were determined for compounds defined as “hits.” The Fluo4 cell-based fluorescence assay was used to determine the intracellular Ca^2+ concentration in the presence of varying drug concentration. […] Compounds were tested in triplicate at all concentrations. Standard software was used to fit IC50 curves.

Setting [1] is: Table 2, read-out: hTRPA1 Fluor IC50.
Setting [2] is: Table 1, read-out: hTRPA1 Fluo4 IC50.

T1 sequence (O75762 whole entry K186N): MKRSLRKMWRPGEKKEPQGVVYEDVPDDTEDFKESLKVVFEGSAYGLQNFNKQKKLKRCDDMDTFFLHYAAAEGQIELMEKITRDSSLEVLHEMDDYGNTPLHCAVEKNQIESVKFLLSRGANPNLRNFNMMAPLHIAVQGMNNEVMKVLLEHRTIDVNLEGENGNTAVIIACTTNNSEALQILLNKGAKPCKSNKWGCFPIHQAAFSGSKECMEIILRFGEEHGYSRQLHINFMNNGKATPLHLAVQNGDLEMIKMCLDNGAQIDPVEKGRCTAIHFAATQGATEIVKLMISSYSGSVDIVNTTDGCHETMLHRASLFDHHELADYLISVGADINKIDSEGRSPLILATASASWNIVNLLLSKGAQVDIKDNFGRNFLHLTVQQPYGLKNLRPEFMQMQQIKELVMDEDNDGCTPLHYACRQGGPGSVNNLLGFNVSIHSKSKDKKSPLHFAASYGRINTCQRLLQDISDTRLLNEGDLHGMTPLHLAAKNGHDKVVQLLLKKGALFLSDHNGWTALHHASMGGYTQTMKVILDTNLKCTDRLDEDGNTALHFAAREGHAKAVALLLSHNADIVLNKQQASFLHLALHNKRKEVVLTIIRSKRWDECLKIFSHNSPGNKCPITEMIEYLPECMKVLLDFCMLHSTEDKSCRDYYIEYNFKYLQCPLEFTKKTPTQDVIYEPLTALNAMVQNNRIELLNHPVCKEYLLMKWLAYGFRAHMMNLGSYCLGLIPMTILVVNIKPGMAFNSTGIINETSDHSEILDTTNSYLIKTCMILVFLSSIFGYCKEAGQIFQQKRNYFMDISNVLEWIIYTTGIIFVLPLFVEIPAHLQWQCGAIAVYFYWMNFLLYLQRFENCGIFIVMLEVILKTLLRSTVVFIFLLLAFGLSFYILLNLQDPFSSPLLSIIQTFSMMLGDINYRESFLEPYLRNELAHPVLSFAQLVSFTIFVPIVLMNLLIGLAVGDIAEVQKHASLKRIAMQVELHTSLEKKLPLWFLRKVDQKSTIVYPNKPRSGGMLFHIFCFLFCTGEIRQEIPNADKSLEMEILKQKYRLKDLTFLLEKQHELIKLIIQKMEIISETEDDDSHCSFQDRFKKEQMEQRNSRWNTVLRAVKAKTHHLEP

The IC50 is the concentration at which inhibition is half-maximal. Consider `Cc1ccc(NC(=O)Cn2cnc3c2c(=O)n(C)c(=O)n3C)cc1F` [Compound 306], for which the IC50 under setting [1] was over 10 µM.
Turning to `COCCOC(=O)C1=C(C)NC(=S)NC1c1ccc(C(C)C)cc1` (stereo not shown), the IC50 under setting [2] is over 10 µM.
For the compound `Cn1c(=O)c2c(ncn2CC(=O)Nc2ccnn2C2CCCC2)n(C)c1=O` [Compound 340], the IC50 under setting [1] is over 10 µM.
On to `COc1ccc(C2NC(=S)N(C)C(C)=C2C(=O)Nc2ccccc2)cc1` (stereo not shown), for which the IC50 under setting [2] is over 10 µM.
`Cc1cc([N+](=O)[O-])ccc1NC(=O)Cn1cnc2c1c(=O)n(C)c(=O)n2C` [Compound 227]: under setting [1], the IC50 was at least 30 µM.
In the case of `CC1=C(C(=O)OCC(F)(F)F)C(c2ccc(Br)cc2)NC(=O)N1` (stereo not shown), under setting [2], the IC50 is over 10 µM.
Still for that read-out and setting: the figure for `CC1=C(C(=O)OC(C)C)C(c2c(F)cccc2Cl)NC(=O)N1` (stereo not shown) is over 10 µM; for `CCN(CC)C(=O)C1=C(C)NC(=S)NC1c1cc(OC)ccc1OC` (stereo not shown) it is over 10 µM.
`CSc1ccccc1NC(=O)Cn1cnc2c1c(=O)n(C)c(=O)n2C` [Compound 316]: under setting [1], the IC50 is over 10 µM.
Same read-out and setting: the figure for `Cn1c(=O)c2c(ncn2CC(=O)NC(CN2CCOCC2)c2ccccc2)n(C)c1=O` (stereo not shown) [Compound 357] is over 10 µM.
Turning to `CC1=C(C(=O)OCC(F)(F)F)C(c2ccc(N(C)C)cc2)NC(=O)N1` (stereo not shown), the IC50 under setting [2] was over 10 µM.
Same read-out and setting: with `COC(=O)C1=C(C)N(C)C(=S)NC1c1ccccc1OC` (stereo not shown) the figure was over 10 µM.
As to `Cn1c(=O)c2c(ncn2CC(=O)NCc2cccc(C(F)(F)F)c2)n(C)c1=O` [Compound 275], the IC50 under setting [1] is over 10 µM.
Turning to `COc1ccc(C2NC(=O)N(C)C(C)=C2C(=O)Nc2ccccc2C)cc1` (stereo not shown), the IC50 under setting [2] is over 10 µM.
For `Cn1c(=O)c2c(ncn2CC(=O)Nc2ccc3c(c2)OCCO3)n(C)c1=O` [Compound 246], the IC50 under setting [1] is over 10 µM.
Regarding `COC(=O)C1=C(CN2CCCC2)NC(=O)NC1c1cc(C)ccc1C` (stereo not shown), the IC50 under setting [2] is over 10 µM.
On the same count and under the same terms, the figure for `COc1cc2c(cc1C1NC(=S)NC(C)=C1C(=O)N(C)C)CCCC2` (stereo not shown) is over 10 µM; for `CC1=C(C(=O)N2CCOCC2)C(c2cccc(Br)c2)NC(=O)N1` (stereo not shown) it is over 10 µM; for `CC1=C(C(=O)OC2CCCCCC2)C(c2cccc(Cl)c2)NC(=O)N1` (stereo not shown) it is over 10 µM.
As to `Cc1ccc(Cl)cc1NC(=O)Cn1cnc2c1c(=O)n(C)c(=O)n2C` [Compound 374], under setting [1], the IC50 was at least 20 µM.
`CC1=C(C(=O)OC(C)C)C(c2c(O)ccc3ccccc23)NC(=S)N1` (stereo not shown): the IC50 under setting [2] is over 10 µM.
For the compound `CC(C(=O)Nc1ccc2c(c1)OCO2)n1cnc2c1c(=O)n(C)c(=O)n2C` (stereo not shown) [Compound 331], the IC50 under setting [1] was over 10 µM.
On the same count and under the same terms, with `Cc1ccc(NC(=O)Cn2cnc3c2c(=O)n(C)c(=O)n3C)nc1` [Compound 372] the figure was at least 30 µM; with `CN(Cc1ccccc1N1CCOCC1)C(=O)Cn1cnc2c1c(=O)n(C)c(=O)n2C` [Compound 342], over 10 µM.
`CCOC(=O)C1=C(CN2CCc3ccccc32)NC(=O)NC1c1cccc([N+](=O)[O-])c1` (stereo not shown): under setting [2], the IC50 is over 10 µM.
On the same count and under the same terms, with `CC1=C(C(=O)OC2CCCC2)C(c2ccccc2Br)NC(=O)N1` (stereo not shown) the figure was over 10 µM.
For the compound `Cn1c(=O)c2c(ncn2CC(=O)NC(C)(C)C)n(C)c1=O` [Compound 289], the IC50 under setting [1] was over 10 µM.
Turning to `Cn1c(=O)c2c(ncn2CC(=O)NCc2ccco2)n(C)c1=O` [Compound 368], the IC50 under setting [1] was over 10 µM.
The same measure, in the same setting: the figure for `COc1ccccc1NC(=O)Cn1cnc2c1c(=O)n(C)c(=O)n2C` [Compound 361] is over 10 µM; for `CCC(C)(C)NC(=O)Cn1cnc2c1c(=O)n(C)c(=O)n2C` [Compound 382] it is over 10 µM.
As for `CCN(CC)C(=O)C1=C(C)NC(=O)NC1c1c(F)cccc1Cl` (stereo not shown), the IC50 under setting [2] is over 10 µM.
Still for that read-out and setting: the figure for `CC1=C(C(=O)OC(C)C(C)C)C(c2ccc(C)cc2)NC(=O)N1` (stereo not shown) is over 10 µM.
On the same count and under the same terms, the figure for `CCOC(=O)C1=C(c2ccccc2)NC(=S)NC1c1ccc(OCC)cc1` (stereo not shown) is over 10 µM.
Consider `Cc1nn(Cc2ccccc2)c(C)c1CNC(=O)Cn1cnc2c1c(=O)n(C)c(=O)n2C` [Compound 339], for which the IC50 under setting [1] was over 10 µM.
Turning to `COCCOC(=O)C1=C(C)NC(=S)NC1c1cccc(Br)c1` (stereo not shown), the IC50 under setting [2] is over 10 µM.
As to `COc1cccc(C2NC(=S)NC(C)=C2C(=O)OCc2ccccc2)c1` (stereo not shown), the IC50 under setting [2] is over 10 µM.
Take `Cc1ccc(NC(=O)Cn2cnc3c2c(=O)n(C)c(=O)n3C)c([N+](=O)[O-])c1` [Compound 222]: the IC50 under setting [1] was over 10 µM.
Still for that read-out and setting: with `Cn1c(=O)c2c(ncn2CC(=O)Nc2ccc(Cl)cc2F)n(C)c1=O` [Compound 304] the figure was at most 5 µM.
Take `COC(=O)C1=C(C)N(C)C(=S)NC1c1ccc(OC)cc1` (stereo not shown): the IC50 under setting [2] is at least 30 µM.
Still for that read-out and setting: with `COC(=O)C1=C(C)N(C)C(=O)NC1c1c(Cl)cccc1Cl` (stereo not shown) the figure was over 10 µM.
Same read-out and setting: with `CCOC(=O)C1=C(CN2CCN(C)CC2)NC(=O)NC1c1ccc(Cl)cc1` (stereo not shown) the figure was over 10 µM; with `CC1=C(C(=O)OCc2ccccc2)C(c2ccc(F)cc2)NC(=O)N1` (stereo not shown), over 10 µM; with `COc1cc(Br)cc(C2NC(=S)NC(C)=C2C(=O)N(C)C)c1OC` (stereo not shown), over 10 µM.
Consider `COC(=O)c1ccc(NC(=O)Cn2cnc3c2c(=O)n(C)c(=O)n3C)cc1` [Compound 363], for which the IC50 under setting [1] is at most 10 µM.
Same read-out and setting: with `COC(=O)c1ccccc1NC(=O)Cn1cnc2c1c(=O)n(C)c(=O)n2C` [Compound 365] the figure was over 10 µM; with `CC(C)N(c1ccccc1)c1ccc(NC(=O)Cn2cnc3c2c(=O)n(C)c(=O)n3C)cc1` [Compound 273], at most 10 µM.
For `COC(=O)C1=C(C)N(C)C(=O)NC1c1cc(Br)ccc1F` (stereo not shown), under setting [2], the IC50 is over 10 µM.
For `CC1=C(C(=O)N2CCOCC2)C(c2cccc(F)c2)NC(=O)N1` (stereo not shown), under setting [2], the IC50 is at most 5 µM.
The same measure, in the same setting: with `CCCOC(=O)C1=C(C)NC(=O)NC1c1ccc(N(CC)CC)cc1` (stereo not shown) the figure was over 10 µM.
For `CCN(C(=O)Cn1cnc2c1c(=O)n(C)c(=O)n2C)c1ccc(F)cc1` [Compound 291], the IC50 under setting [1] was at most 5 µM.
Regarding `CC1=C(C(=O)OCCc2ccccc2)C(c2ccccc2)NC(=O)N1` (stereo not shown), the IC50 under setting [2] is over 10 µM.
The same measure, in the same setting: with `CC1=C(C(=O)OC(C)C)C(c2cccc(Br)c2)NC(=O)N1` (stereo not shown) the figure was over 10 µM.
Take `CCCC(C)NC(=O)Cn1cnc2c1c(=O)n(C)c(=O)n2C` (stereo not shown) [Compound 376]: the IC50 under setting [1] is over 10 µM.
Regarding `Cn1c(=O)c2c(ncn2CC(=O)Nc2ccccc2Cl)n(C)c1=O` [Compound 221], the IC50 under setting [1] was over 10 µM.
Turning to `C=CCOC(=O)C1=C(C)NC(=O)NC1c1c(Cl)cccc1Cl` (stereo not shown), under setting [2], the IC50 was over 10 µM.
Consider `Cn1c(=O)c2c(ncn2CC(=O)Nc2ccccc2Cc2ccccc2)n(C)c1=O` [Compound 258], for which, under setting [1], the IC50 was over 10 µM.
Turning to `CC1=C(C(=O)OCc2ccccc2)C(c2ccc(C(C)C)cc2)NC(=O)N1` (stereo not shown), under setting [2], the IC50 was over 10 µM.
On to `Cc1cc(NC(=O)Cn2cnc3c2c(=O)n(C)c(=O)n3C)n(-c2ccccc2)n1` [Compound 255], for which the IC50 under setting [1] is at least 20 µM.
In the case of `CCN1C(=O)NC(c2c(F)cccc2Cl)C(C(=O)OC)=C1C` (stereo not shown), the IC50 under setting [2] is over 10 µM.
For the compound `COC(=O)C(CC(C)C)NC(=O)Cn1cnc2c1c(=O)n(C)c(=O)n2C` (stereo not shown) [Compound 378], the IC50 under setting [1] was over 10 µM.
Turning to `CC1=C(C(=O)OC2CCCC2)C(c2ccccc2Cl)NC(=O)N1C` (stereo not shown), the IC50 under setting [2] was over 10 µM.
On the same count and under the same terms, with `CCOC(=O)C1=C(C)NC(=S)NC1c1ccc(C)cc1C` (stereo not shown) the figure was over 10 µM.
In the case of `CC(=O)c1ccc(NC(=O)Cn2cnc3c2c(=O)n(C)c(=O)n3C)cc1` [Compound 360], the half-maximal inhibitory concentration (IC50) under setting [1] was at most 10 µM.
On to `Cn1c(=O)c2c(ncn2CC(=O)NCc2cccc(Cl)c2)n(C)c1=O` [Compound 286], for which the IC50 under setting [1] is over 10 µM.
